This passage reports IC50 results from patent publication US11723908B2, “Quinazoline derivatives as antitumor agents” (SUZHOU ZANRONG PHARMA LIMITED, priority 2018, dated 2023).

For one experiment, the target named is HER2 (Homo sapiens (Human), UniProt P04626). Nature of the experiment: BT474 cellular assay (HER2 inhibition), phospho-HER2 ELISA. The experiment is classed as cell-based. Conditions: inhibition of phosphor HER2, BT474 cells, 2 hours compound incubation. The procedure:
Assay a) BT474 Cellular Assay (HER2 Inhibition) Inhibition of phosphor HER2 was determined by enzyme-linked immunosorbent assay (ELISA) in BT474 cells. BT474 cell line was purchased from [NT] number HTB-20). Human Phospho-ErbB2 ELISA kit was purchased from R&D systems (catalog number DYC1768). Day 1: When the cells reach 70-90% confluence, cells were trypsinized and re-suspended. 5000 cells per well were seeded to a 384-well plate. The plate was incubated at 37° C. with 5% CO2 for 24 hours. ELISA plate was coated with 2 μg/ml capture antibody, which was incubated at 4° C. overnight. Day 2: 25 nl compounds was dosed by Echo from source plate and the 384-well plate was incubated at 37° C. for 2 hours. 30 μl lysis buffer was added to each well and the 384-well plate was shaken softly at 4° C. for 30 minutes. The ELISA plate was washed, blocked and incubated at room temperature for 1-2 hours. The blocked ELISA plate was washed and 20 μl cell lysate was transferred from the 384-well plate to the ELISA plate, which was incubated overnight at 4° C. Day 3: The ELISA plate was washed 3 times. 25 μl/well detection antibody was added (diluted 1 by 2000 in 1% BSA in PBS). After 2 hours of incubation with detection antibody, the ELISA plate was washed 3 times, 25 μl/well TMB substrate was added and incubated for 10-15 minutes before stop solution was added. Absorbance at 450 nm and 570 nm was read within 30 minutes after adding the stop solution. […] The IC50 results are provided in Table 1 for some exemplary compounds.

The next experiment concerns the target wt-EGFR (Homo sapiens (Human), UniProt P00533). Nature of the experiment: NCI H838 cellular assay (wt-EGFR inhibition), phospho-EGFR ELISA. The experiment is classed as cell-based. The procedure: Assay b) NCI H838 Cellular Assay (Wt-EGFR Inhibition) Inhibition of phosphor wt-EGFR was determined by enzyme-linked immunosorbent assay (ELISA) in NCI H838 cells (ATCC, catalog number CRL-5844). Human Phospho-EGFR DuoSet IC ELISA kit was purchased from R&D systems (catalog number DYC1095). Day 1: When the cells reach 70-90% confluence, cells were trypsinized and re-suspended. 5000 cells per well were seeded to a 384-well plate. The plate was incubated at 37° C. with 5% CO2 for 24 hours. Day 2: Cell culture medium was replaced with 40 μL FBS-Free RPMI1640. After 2 hours of starvation, the 384-well plate was dosed with 40 nL of compounds by Echo from source plate and the 384-well plate was incubated at 37° C. with 5% CO2 for 2 hours. After 2 hours of incubation with compounds, EGF (final concentration at 100 ng/ml) was added to the plate which was incubated at 37° C. with 5% CO2 for 5-10 minutes. Medium was discarded from the plate and 30 μl/well lysis buffer was added to the plate which was incubated at 4° C. for 10 minutes. The cell lysates can be stored at −80° C. in cell plates but must be thawed at room temperature for at least 30 minutes prior to use and continuing the assay. ELISA plate was coated by diluting capture antibody to 4 μg/ml with PBS, and 25 μl/well was dispensed to 384 well UltraCruz® ELISA Plate, which was incubated at 4° C. overnight. Day 3: After the plates were washed three times with 100 μl/well of wash buffer, the plates were blocked by adding 75 μl of Block Buffer to each well and incubated at room temperature for 3 hours. After the plates were washed three times with 100 μl/well of wash buffer, 20 μl cell lysate was transferred to the blocked ELISA plate which was incubated for 2 hours at room temperature. After the plates were washed three times with 100 μl/well of wash buffer, 25 μl/well detection antibody (dilute 1 in 900 in assay buffer) was added the plate which was incubated for 2 hours, protected from light. After washed three times, 25 μl/well TMB substrate was added to the ELISA plate which was incubated for about 10-15 min, protected from light before addition of 25 μl/well stop solution. Absorbance was read at 450 nm and 570 nm within 30 minutes.

Where [1] appears, read: inhibition of phosphor wt-EGFR, NCI H838 cells, EGF 100 ng/ml.

The IC50 is the point on the concentration scale where inhibition reaches its midpoint.

SMILES strings stand for the structures. Like-named read-outs stand apart in the source and are kept apart here. Some results are limits rather than exact numbers.

Sequence of HER2 (P04626 23-1255): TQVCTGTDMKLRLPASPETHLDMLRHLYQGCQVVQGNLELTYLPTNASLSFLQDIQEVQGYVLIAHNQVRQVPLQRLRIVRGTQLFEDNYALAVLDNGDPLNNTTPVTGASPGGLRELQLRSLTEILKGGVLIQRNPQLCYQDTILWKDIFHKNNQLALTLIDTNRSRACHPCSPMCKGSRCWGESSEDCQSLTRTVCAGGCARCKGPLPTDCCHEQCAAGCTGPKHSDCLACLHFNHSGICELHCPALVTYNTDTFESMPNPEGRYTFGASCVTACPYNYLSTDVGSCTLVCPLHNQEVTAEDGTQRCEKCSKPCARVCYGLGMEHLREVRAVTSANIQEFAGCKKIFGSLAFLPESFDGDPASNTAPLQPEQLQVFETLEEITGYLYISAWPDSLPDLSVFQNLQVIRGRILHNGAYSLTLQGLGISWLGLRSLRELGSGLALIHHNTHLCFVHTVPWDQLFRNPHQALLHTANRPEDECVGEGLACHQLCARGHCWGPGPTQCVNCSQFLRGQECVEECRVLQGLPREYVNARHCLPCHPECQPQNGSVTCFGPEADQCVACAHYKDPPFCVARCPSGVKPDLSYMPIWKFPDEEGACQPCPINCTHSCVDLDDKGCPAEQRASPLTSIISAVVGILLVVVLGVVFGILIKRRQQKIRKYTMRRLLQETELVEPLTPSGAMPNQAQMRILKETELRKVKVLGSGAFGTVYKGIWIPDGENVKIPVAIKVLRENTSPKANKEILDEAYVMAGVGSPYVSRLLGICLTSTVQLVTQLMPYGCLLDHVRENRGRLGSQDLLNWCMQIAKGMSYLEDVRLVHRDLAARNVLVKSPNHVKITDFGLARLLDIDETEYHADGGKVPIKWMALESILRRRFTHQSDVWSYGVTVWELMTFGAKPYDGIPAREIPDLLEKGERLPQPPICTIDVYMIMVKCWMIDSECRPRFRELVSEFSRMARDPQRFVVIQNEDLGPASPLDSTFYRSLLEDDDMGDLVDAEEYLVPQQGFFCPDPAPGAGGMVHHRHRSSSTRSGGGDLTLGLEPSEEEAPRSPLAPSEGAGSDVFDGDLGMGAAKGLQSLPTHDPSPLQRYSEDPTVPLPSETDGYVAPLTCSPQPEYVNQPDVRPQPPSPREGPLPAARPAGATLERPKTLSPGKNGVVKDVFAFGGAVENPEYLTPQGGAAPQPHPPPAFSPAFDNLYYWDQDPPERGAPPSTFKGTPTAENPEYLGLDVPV
Sequence of wt-EGFR (P00533 25-1210): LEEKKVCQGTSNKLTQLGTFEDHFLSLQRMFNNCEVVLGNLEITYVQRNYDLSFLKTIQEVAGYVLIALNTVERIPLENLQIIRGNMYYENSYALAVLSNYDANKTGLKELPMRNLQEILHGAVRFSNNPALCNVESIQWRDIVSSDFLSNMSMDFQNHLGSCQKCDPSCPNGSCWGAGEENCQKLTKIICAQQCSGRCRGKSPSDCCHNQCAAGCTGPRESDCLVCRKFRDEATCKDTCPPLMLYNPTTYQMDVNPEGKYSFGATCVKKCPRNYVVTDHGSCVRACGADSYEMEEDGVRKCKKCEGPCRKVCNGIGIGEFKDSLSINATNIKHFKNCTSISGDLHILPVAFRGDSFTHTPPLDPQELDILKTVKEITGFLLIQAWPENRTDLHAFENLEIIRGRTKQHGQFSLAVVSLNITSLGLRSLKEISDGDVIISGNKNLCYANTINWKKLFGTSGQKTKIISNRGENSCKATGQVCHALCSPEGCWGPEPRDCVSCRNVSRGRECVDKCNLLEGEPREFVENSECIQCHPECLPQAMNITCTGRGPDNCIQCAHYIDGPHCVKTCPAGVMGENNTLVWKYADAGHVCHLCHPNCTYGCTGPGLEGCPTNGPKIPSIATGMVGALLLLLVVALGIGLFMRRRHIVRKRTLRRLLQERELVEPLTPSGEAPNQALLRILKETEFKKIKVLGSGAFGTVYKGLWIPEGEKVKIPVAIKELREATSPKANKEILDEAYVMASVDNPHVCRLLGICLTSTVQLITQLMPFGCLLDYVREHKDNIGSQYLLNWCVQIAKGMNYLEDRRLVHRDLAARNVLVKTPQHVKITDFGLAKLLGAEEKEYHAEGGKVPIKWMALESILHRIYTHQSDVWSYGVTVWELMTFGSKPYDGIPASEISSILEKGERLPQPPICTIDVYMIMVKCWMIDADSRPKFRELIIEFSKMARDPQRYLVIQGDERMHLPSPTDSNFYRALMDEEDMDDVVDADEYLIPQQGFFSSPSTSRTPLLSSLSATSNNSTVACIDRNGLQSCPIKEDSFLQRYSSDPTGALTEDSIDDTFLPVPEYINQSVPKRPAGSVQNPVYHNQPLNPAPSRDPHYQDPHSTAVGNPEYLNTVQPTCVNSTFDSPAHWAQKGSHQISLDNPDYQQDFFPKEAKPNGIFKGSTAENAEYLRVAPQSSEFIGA

Regarding `COc1ccc2ncnc(Nc3ccc(Oc4cc5ncnn5cn4)c(C)c3)c2c1N1CC2(C[C@H](F)CN2C)C1` (single isomer, unassigned) [Example 43], the values for the IC50 on HER2 and against wt-EGFR (setting [1]) were 24 nM and 2030 nM, respectively.

Take `COc1ccc2ncnc(Nc3ccc(Oc4cc5ncnn5cn4)c(C)c3)c2c1N1CC2(C[C@@H](F)CN2C)C1` (single isomer, unassigned) [Example 44]: the values for the IC50 against HER2 and on wt-EGFR (setting [1]) were 5 nM and 234 nM, respectively.

For `COc1ccc2ncnc(Nc3ccc(Oc4cc5ncnn5cn4)c(C)c3)c2c1N1CC2(C[C@H](F)CCN2C)C1` (single isomer, unassigned) [Example 47], the IC50 against HER2 turned out to be 4.1 nM; at wt-EGFR (setting [1]) it was 4540 nM.

Take `COc1ccc2ncnc(Nc3ccc(Oc4cc5ncnn5cn4)c(C)c3)c2c1N1CC2(C[C@@H](F)CCN2C)C1` (single isomer, unassigned) [Example 48]: the IC50 was determined as 6.7 nM against HER2 and 364 nM at wt-EGFR (setting [1]).

Take `COc1ccc2ncnc(Nc3ccc(Oc4cc5ncnn5cn4)c(C)c3)c2c1N1CC(N(C)C)C1` [Example 1, N-(4-([1,2,4]triazolo[1,5-c]pyrimidin-7-yloxy)-3-methylphenyl)-5-(3-(dimethylamino)azetidin-1-yl)-6-methoxyquinazolin-4-amine]: the IC50 at HER2 is 9.2 nM; against wt-EGFR (setting [1]), 2800 nM.

Turning to `COc1ccc2ncnc(Nc3ccc(Oc4cc5ncnn5cn4)c(C)c3)c2c1N1CC[C@H](N(C)C)C1` [Example 3, (S)—N-(4-([1,2,4]triazolo[1,5-c]pyrimidin-7-yloxy)-3-methylphenyl)-5-(3-(dimethylamino)pyrrolidin-1-yl)-6-methoxyquinazolin-4-amine], the results for the IC50 on HER2 and against wt-EGFR (setting [1]) were 31 nM and 330 nM, respectively.

With `COc1ccc2ncnc(Nc3ccc(Oc4cc5ncnn5cn4)c(C)c3)c2c1N1CCOCC1` [Example 4, N-(4-([1,2,4]triazolo[1,5-c]pyrimidin-7-yloxy)-3-methylphenyl)-6-methoxy-5-morpholinoquinazolin-4-amine], the IC50 against HER2 is 105 nM; against wt-EGFR (setting [1]) it was over 10000 nM.

For `CCOc1ccc2ncnc(Nc3ccc(Oc4cc5ncnn5cn4)c(C)c3)c2c1N1CC(N(C)C)C1` [Example 11, N-(4-([1,2,4]triazolo[1,5-c]pyrimidin-7-yloxy)-3-methylphenyl)-5-(3-(dimethylamino)azetidin-1-yl)-6-ethoxyquinazolin-4-amine], the figures for the IC50 on HER2 and against wt-EGFR (setting [1]) were 13 nM and 6700 nM, respectively.

For the compound `Cc1cc(Nc2ncnc3ccc(OCCF)c(N4CC(N(C)C)C4)c23)ccc1Oc1cc2ncnn2cn1` [Example 12, N-(4-([1,2,4]triazolo[1,5-c]pyrimidin-7-yloxy)-3-methylphenyl)-5-(3-(dimethylamino)azetidin-1-yl)-6-(2-fluoroethoxy)quinazolin-4-amine], the IC50 stood at 26 nM against HER2 and 180 nM at wt-EGFR (setting [1]).

Turning to `COc1ccc2ncnc(Nc3ccc(Oc4cc5ncnn5cn4)c(C)c3)c2c1O[C@H]1CCN(C)CC1(F)F` [Example 32, (S)—N-(4-([1,2,4]triazolo[1,5-c]pyrimidin-7-yloxy)-3-methylphenyl)-5-((3,3-difluoro-1-methylpiperidin-4-yl)oxy)-6-methoxyquinazolin-4-amine], the figures for the IC50 against HER2 and against wt-EGFR were 16 nM and 4800 nM, respectively.

For the compound `COc1ccc2ncnc(Nc3ccc(Oc4cc5ncnn5cn4)c(Cl)c3)c2c1O[C@H]1CCN(C)CC1(F)F` [Example 34, (S)—N-(4-([1,2,4]triazolo[1,5-c]pyrimidin-7-yloxy)-3-chlorophenyl)-5-((3,3-difluoro-1-methylpiperidin-4-yl)oxy)-6-methoxyquinazolin-4-amine], the IC50 was found to be 18 nM on HER2 and 6300 nM against wt-EGFR (setting [1]).

Regarding `[2H]C([2H])([2H])N1CCC(Oc2c(OC)ccc3ncnc(Nc4ccc(Oc5cc6ncnn6cn5)c(C)c4)c23)C(F)(F)C1` (centres unmarked) [Example 35, N-(4-([1,2,4]triazolo[1,5-c]pyrimidin-7-yloxy)-3-methylphenyl)-5-((3,3-difluoro-1-(methyl-d3)piperidin-4-yl)oxy)-6-methoxyquinazolin-4-amine], the results for the IC50 against HER2 and against wt-EGFR were 16 nM and 1280 nM, respectively.

Take `[2H]C([2H])([2H])Oc1ccc2ncnc(Nc3ccc(Oc4cc5ncnn5cn4)c(C)c3)c2c1O[C@H]1CCN(C)CC1(F)F` [Example 37, (S)—N-(4-([1,2,4]triazolo[1,5-c]pyrimidin-7-yloxy)-3-methylphenyl)-5-((3,3-difluoro-1-methylpiperidin-4-yl)oxy)-6-(methoxy-d3)quinazolin-4-amine]: the IC50 is 12 nM against HER2 and over 10000 nM against wt-EGFR.

`COc1ccc2ncnc(Nc3ccc(Oc4cc5ncnn5cn4)c(C)c3)c2c1N1CC2(CN(C)CCO2)C1` [Example 38, N-(4-([1,2,4]triazolo[1,5-c]pyrimidin-7-yloxy)-3-methylphenyl)-6-methoxy-5-(8-methyl-5-oxa-2,8-diazaspiro[3.5]nonan-2-yl)quinazolin-4-amine]: the IC50 on HER2 is 37 nM; at wt-EGFR (setting [1]), over 10000 nM.

For the compound `COc1ccc2ncnc(Nc3ccc(Oc4cc5ncnn5cn4)c(C)c3)c2c1N1C[C@@H](N(C)C)[C@@H](F)C1` [Example 39, N-(4-([1,2,4]triazolo[1,5-c]pyrimidin-7-yloxy)-3-methylphenyl)-5-((3R,4S)-3-(dimethylamino)-4-fluoropyrrolidin-1-yl)-6-methoxyquinazolin-4-amine], the IC50 is 94 nM against HER2 and over 10000 nM against wt-EGFR (setting [1]).

With `COc1ccc2ncnc(Nc3ccc(Oc4cc5ncnn5cn4)c(C)c3)c2c1N1C[C@@H](F)[C@H](N(C)C)C1` [Example 40, N-(4-([1,2,4]triazolo[1,5-c]pyrimidin-7-yloxy)-3-methylphenyl)-5-((3R,4R)-3-(dimethylamino)-4-fluoropyrrolidin-1-yl)-6-methoxyquinazolin-4-amine], the IC50 is 63 nM against HER2 and over 10000 nM on wt-EGFR (setting [1]).

As for `COc1ccc2ncnc(Nc3ccc(Oc4cc5ncnn5cn4)c(C)c3)c2c1N1CC2(COCCN2C)C1` [Example 41, N-(4-([1,2,4]triazolo[1,5-c]pyrimidin-7-yloxy)-3-methylphenyl)-6-methoxy-5-(5-methyl-8-oxa-2,5-diazaspiro[3.5]nonan-2-yl)quinazolin-4-amine], the IC50 at HER2 stood at 35 nM; against wt-EGFR (setting [1]) it was 2260 nM.

Consider `COc1ccc2ncnc(Nc3ccc(Oc4cc5ncnn5cn4)c(C)c3)c2c1N1CC2OCCN(C)C2C1` (centres unmarked) [Example 42, N-(4-([1,2,4]triazolo[1,5-c]pyrimidin-7-yloxy)-3-methylphenyl)-6-methoxy-5-(4-methylhexahydropyrrolo[3,4-b][1,4]oxazin-6(2H)-yl)quinazolin-4-amine], for which the IC50 against HER2 was 58 nM; at wt-EGFR (setting [1]), over 10000 nM.

`Cc1cc(Nc2ncnc3ccc(NC(=O)/C=C/[C@H]4CCCN4C)c(O[C@@H]4CCN(C)CC4(F)F)c23)ccc1Oc1cc2ncnn2cn1` [Example 95, (E)-N-(4-((4-([1,2,4]triazolo[1,5-c]pyrimidin-7-yloxy)-3-methylphenyl)amino)-5-(((R)-3,3-difluoro-1-methylpiperidin-4-yl)oxy)quinazolin-6-yl)-3-((R)-1-methylpyrrolidin-2-yl)acrylamide] gave an IC50 on HER2 of 48 nM.

At HER2, `COc1cc2ncnc(Nc3ccc(Oc4cc5ncnn5cn4)c(C)c3)c2c(O[C@@H]2CCN(C)CC2(F)F)c1OC` [Example 99, (R)—N-(4-([1,2,4]triazolo[1,5-c]pyrimidin-7-yloxy)-3-methylphenyl)-5-((3,3-difluoro-1-methylpiperidin-4-yl)oxy)-6,7-dimethoxyquinazolin-4-amine] showed an IC50 of 170 nM.
